According to BindingDB's records for doi:10.1021/acsmedchemlett.3c00104 (Novartis Institutes for Biomedical Research, 2023):

Key:
[1] = molecular target: T1, DDB1- and CUL4-associated factor 1 (Homo sapiens, UniProt Q9Y4B6); test: Binding affinity to Avi-tagged DCAF1 (1073 to 1399 residues) (unknown origin) expressed in baculovirus infected in Sf9 insect cells by SPR analysis
[2] = molecular target: T1, DDB1- and CUL4-associated factor 1; test: Binding affinity to Avi-tagged DCAF1 (1039 to 1401 residues) (unknown origin) expressed in baculovirus infected in Sf9 insect cells by NMR analysis

T1 sequence (Q9Y4B6 whole entry, the tested form may be a part): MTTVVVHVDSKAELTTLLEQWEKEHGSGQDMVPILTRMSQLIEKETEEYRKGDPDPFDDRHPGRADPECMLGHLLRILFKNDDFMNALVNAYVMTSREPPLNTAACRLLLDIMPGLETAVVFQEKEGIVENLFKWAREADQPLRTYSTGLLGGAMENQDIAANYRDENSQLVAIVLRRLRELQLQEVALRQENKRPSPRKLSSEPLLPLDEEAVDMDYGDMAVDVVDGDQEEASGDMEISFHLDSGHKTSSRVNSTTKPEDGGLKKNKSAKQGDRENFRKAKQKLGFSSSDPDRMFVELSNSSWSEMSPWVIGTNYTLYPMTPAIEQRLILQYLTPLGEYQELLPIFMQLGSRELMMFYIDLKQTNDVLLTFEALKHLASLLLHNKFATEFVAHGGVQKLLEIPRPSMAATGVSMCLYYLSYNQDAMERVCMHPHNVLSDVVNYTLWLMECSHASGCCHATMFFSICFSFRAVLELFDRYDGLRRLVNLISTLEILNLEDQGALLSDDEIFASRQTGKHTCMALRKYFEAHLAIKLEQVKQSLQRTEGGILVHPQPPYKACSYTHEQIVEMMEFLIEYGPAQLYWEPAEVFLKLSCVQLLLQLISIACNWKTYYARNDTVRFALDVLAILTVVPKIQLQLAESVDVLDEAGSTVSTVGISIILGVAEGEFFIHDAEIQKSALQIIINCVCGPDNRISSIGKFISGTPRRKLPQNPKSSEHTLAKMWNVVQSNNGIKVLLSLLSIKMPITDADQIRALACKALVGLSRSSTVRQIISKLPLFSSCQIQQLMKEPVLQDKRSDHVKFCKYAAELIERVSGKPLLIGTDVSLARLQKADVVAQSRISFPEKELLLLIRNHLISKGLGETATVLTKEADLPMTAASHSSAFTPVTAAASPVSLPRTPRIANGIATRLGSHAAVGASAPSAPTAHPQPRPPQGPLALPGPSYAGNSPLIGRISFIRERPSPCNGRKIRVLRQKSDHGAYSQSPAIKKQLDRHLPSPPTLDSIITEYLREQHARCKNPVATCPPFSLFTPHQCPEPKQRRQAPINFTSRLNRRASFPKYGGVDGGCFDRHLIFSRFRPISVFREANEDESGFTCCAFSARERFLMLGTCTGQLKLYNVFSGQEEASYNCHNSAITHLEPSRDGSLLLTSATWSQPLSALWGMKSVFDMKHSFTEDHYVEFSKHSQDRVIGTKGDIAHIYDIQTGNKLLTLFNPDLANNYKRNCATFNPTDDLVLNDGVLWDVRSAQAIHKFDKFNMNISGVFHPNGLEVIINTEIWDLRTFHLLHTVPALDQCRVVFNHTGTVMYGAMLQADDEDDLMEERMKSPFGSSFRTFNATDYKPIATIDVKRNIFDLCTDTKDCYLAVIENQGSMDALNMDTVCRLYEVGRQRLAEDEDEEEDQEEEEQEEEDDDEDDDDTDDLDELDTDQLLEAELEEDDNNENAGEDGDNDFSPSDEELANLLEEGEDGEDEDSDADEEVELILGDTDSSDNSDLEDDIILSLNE

Kd [1] [µM] | Kd [2] [µM] | Structure (SMILES)
> 100 | > 500 | NC1=NCC(c2cccc(Oc3ccc(Cl)cc3)c2)C1 (stereo not drawn)
41 | 13 | Clc1ccc(C2(C3=Cc4ccccc4C4=NCCN34)CC2)cc1
> 50 | – | COc1ccc(C2(C3=Cc4ccccc4C4=NCCN34)CC2)cc1
11.4 | – | COc1ccc(C2(C3=Cc4cc(N5CCN(C)CC5)ccc4C4=NCCN34)CC2)cc1
26.7 | – | COc1ccc(C2(c3nc(NCCN)c4ccccc4n3)CC2)cc1
5.6 | – | COc1ccc(C2(c3nc(NCCN)c4ccc(N5CCN(C)CC5)cc4n3)CC2)cc1
1.5 | – | COc1ccc(C2(c3nc(NCCN)c4ccc(N5CCN(C(C)=O)CC5)cc4n3)CC2)cc1
0.098 | – | CN1CCN(c2ccc3c(NCCN)nc(C4(c5ccc(Cl)cc5)CCCC4)nc3c2)CC1
0.047 | – | CC(=O)N1CCN(c2ccc3c(NCCN)nc(C4(c5ccc(Cl)cc5)CCCC4)nc3c2)CC1
0.083 | – | CN1CCN(c2ccc3c(NCCN)nc(C4(c5ccc(Cl)cc5)CCCCC4)nc3c2)CC1
– | 40 | CC(C)(Cc1ccccc1)C1=Cc2ccccc2C2=NCCN12
